Laboratory results as given in patent US8946167B2, “Pharmaceutical compositions containing plasma protein” (priority 1997, dated 2015).

What was measured:
human gamma globulin = assay: binding of active substance to human gamma globulin (ultrafiltration, HPLC); details: Example II.4; 2.25% human gamma globulin + 0.1 mg/ml paclitaxel in absolute ethanol 9:1; lyophilised, redissolved; UF
histamine release = assay: hypersensitivity test: plasma histamine level in rats; format: in vivo, CRL (WI) BR male rats; details: around 7.0 mg/kG for paclitaxel i.v., blood after 2, 5 and 10 minutes
Protocol: Our study was performed on CRL (WI) BR male rats weighing 130-150 g [14]. […] A group for each time point and dose contained 5 animals. The blood samples were collected into heparin containing tubes after 2, 5 and 10 minutes of treatment. The plasma was separated by quick centrifugation. The samples were stored at −70° C.
The histamine content of the sample was C^14-methylated by specific histamine-N-methyl-transferase enzyme. The histamine level was determined in the plasma samples measuring the C^14 radioactivity in the samples.

CC(=O)O[C@H]1C(=O)[C@@]2(C)[C@H]([C@H](OC(=O)c3ccccc3)[C@]3(O)C[C@H](OC(=O)[C@H](O)[C@@H](NC(=O)c4ccccc4)c4ccccc4)C(C)=C1C3(C)C)[C@]1(OC(C)=O)CO[C@@H]1C[C@@H]2O [paclitaxel]
binding of paclitaxel to human gamma globulin (human gamma globulin): 98%
histamine release induction (plasma histamine level) (histamine release): do not show any such effect
